pIC50: −log10 of the molar value.
Each molecule was assayed against T1, sterol 14-reductase (Rattus norvegicus, UniProt A0ACM8Q6X4) (assay: Inhibition of sterol 14-reductase in rat liver microsomes). Conditions: microsomes; read-out: Enzyme Activity (relative in vitro activity for sterol 14-reductase, IC50 class).
T1 construct: microsome which was used as an enzyme source of sterol 14-reductase; from tissue; host or cells: liver microsomes of male Sprague-Dawley rats fed lovastatin and cholestyramine
T1 sequence (A0ACM8Q6X4 1-418): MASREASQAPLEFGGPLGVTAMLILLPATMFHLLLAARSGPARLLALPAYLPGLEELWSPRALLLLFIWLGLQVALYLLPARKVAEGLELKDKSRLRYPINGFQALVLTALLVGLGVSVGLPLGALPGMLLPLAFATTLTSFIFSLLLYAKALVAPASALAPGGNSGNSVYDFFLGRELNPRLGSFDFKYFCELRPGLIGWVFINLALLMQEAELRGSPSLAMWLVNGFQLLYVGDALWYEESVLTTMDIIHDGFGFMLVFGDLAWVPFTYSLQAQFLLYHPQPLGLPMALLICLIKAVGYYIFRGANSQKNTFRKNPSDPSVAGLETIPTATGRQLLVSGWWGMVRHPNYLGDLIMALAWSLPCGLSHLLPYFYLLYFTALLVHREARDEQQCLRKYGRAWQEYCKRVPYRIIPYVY
Assay type: biochemical
Procedure: 20 Male Sprague-Dawley rats weighing from 150 to 250 g have been fed for 7 days with a diet containing 0.1% (w/w) Lovastatin and 5% (w/w) Cholestyramine. The animals were fasted for 12 hours before excising liver tissues and then sacrificed by decapitation at midnight. An aqueous solution containing 0.25M of sucrose was injected into the hepatic portal vein to remove all the blood within the liver, and then, the liver was excised. The liver was homogenated with two volumes of buffer solution A (0.1M potassium phosphate, 1 mM reduced glutathione, 0.5 mM EDTA, 20% (v/v) glycerol, pH 7.4) by repeating pestles over 10 times and then, centrifuged with 900×g for 5 minutes to give a supernatant. The supernatant was centrifuged with 12,000×g for 20 minutes. The supernatant obtained was ultracentrifuged with 105,000×g for 90 minutes to give a microsome which was used as an enzyme source of sterol 14-reductase. Assay for sterol 14-reductase was carried out as follows:
60 mmol of 4,4-dimethyl-5α-cholesta-7,14-dien-3β-ol and 5,6-dihydrodibenzo-[a,g]quinolizinium salts (compound no. 2) dissolved in DMSO were added to an assay mixture (total volume 1.0 ml) containing 2 mg of the microsomal protein, 2 mM of NADPH and 25 mg of glucose plus 20 units of glucose oxidase with preincubations under nitrogen at 37° C. for 4 min. unless otherwise specified to establish anaerobic condition. Buffer A (0.1M potassium phosphate buffer, pH 7.4, including 1 mM reduced glutathione, 0.5 mM EDTA, and 20% (v/v) glycerol) used for incubation had been equilibrated with nitrogen, and nitrogen was exchanged for air in all sealed reaction flasks prior to the start of incubations. Incubation of the complete mixture was carried out anaerobically in sealed flasks for 10 min at 37° C. unless otherwise indicated. Incubations were terminated by the addition of 1 ml of ethanolic KOH followed by heating under reflux for 10 min. Sterols were extracted four times with 4 ml of petroleum ether, and the solvent was evaporated to dryness under a nitrogen stream. The resulting residue was dissolved in 200-500 μl of n-hexane for quantification by GLC at high sensitive attenuation. The activity of sterol 14-reductase was determined with the amount of the substrate wherein the double bonds of 14-carbon were reduced (for the amount reduced by 1 mg of the microsome protein for 1 minute).

| Compound | pIC50 |
| --- | --- |
| CCc1c2[n+](cc3c(OCc4ccc(C)c([N+](=O)[O-])c4)c(OC)ccc13)CCc1cc3c(cc1-2)OCO3 [Compound No. 49, 5,6-dihydro-2,3-methylenedioxybenzo[a]-13-ethyl-10-methoxy-9-(4-methyl-3-nitro)benzyloxybenzo[g]quinolizinium iodide] | 4.00 to 5.00 |
| CCc1c2[n+](cc3c(OCc4ccccc4C(F)(F)F)c(OC)ccc13)CCc1cc(OC)c(OC)cc1-2 [Compound No. 33, 5,6-dihydro-2,3-dimethoxybenzo[a]-13-ethyl-10-methoxy-9-(2-trifluoromethyl)benzyloxybenzo[g]quinolizinium chloride] | < 4.00 |

Same assay, conditions: read-out: Enzyme Activity (relative in vitro activity for sterol 14-reductase, IC50 class)

| pIC50 | Compound |
| --- | --- |
| > 6.00 | CCc1c2[n+](cc3c(OCc4ccc(C(C)(C)C)cc4)c(OC)ccc13)CCc1cc3c(cc1-2)OCO3 [Compound No. 46, 5,6-dihydro-2,3-methylenedioxybenzo[a]-9-[(4-tert-butyl)benzyloxy]-13-ethyl-10-methoxybenzo[g]quinolizinium iodide] |
| 4.00 to 5.00 | CCc1c2[n+](cc3c(OCc4ccc([N+](=O)[O-])o4)c(OC)ccc13)CCc1cc(OC)c(OC)cc1-2 [Compound No. 39, 5,6-dihydro-2,3-dimethoxybenzo[a]-13-ethyl-10-methoxy-9-(5-nitrofuran-2-yl)methoxybenzo[g]quinolizinium chloride] |
| < 4.00 | CCc1c2[n+](cc3c(OCc4cccc(Oc5ccccc5)c4)c(OC)ccc13)CCc1cc(OC)c(OC)cc1-2 [Compound No. 21, 5,6-dihydro-2,3-dimethoxybenzo[a]-13-ethyl-10-methoxy-9-(3-phenoxy)benzyloxybenzo[g]quinolizinium chloride] |
| 4.00 to 5.00 | CCOc1cc2c(cc1OCC)-c1c(CC)c3ccc(OCC)c(OCc4ccc(Cl)nc4)c3c[n+]1CC2 [Compound No. 65, 5,6-dihydro-2,3-diethoxybenzo[a]-9-(6-chloropyridine-3-yl)methoxy-10-ethoxy-13-ethylbenzo[g]-quinolizinium chloride] |
| 4.00 to 5.00 | CCCCCCCCCCCCOc1c(OC)ccc2c(CC)c3[n+](cc12)CCc1cc2c(cc1-3)OCO2 [Compound No. 45, 5,6-dihydro-2,3-methylenedioxybenzo[a]-9-dodecoxy-13-ethyl-10-methoxybenzo[g]quinolizinium iodide] |
| 4.00 to 5.00 | CCCOc1cc2c(cc1OCCC)-c1c(CC)c3ccc(OCCC)c(OCc4c(F)c(F)c(F)c(F)c4F)c3c[n+]1CC2 [Compound No. 67, 5,6-dihydro-2,3-dipropoxybenzo[a]-13-ethyl-9-(2,3,4,5,6-pentafluoro)benzyloxy-10-propoxybenzo[g]quinolizinium chloride] |
| < 4.00 | CCc1c2[n+](cc3c(OCc4ccc(C(C)C)cc4)c(OC)ccc13)CCc1cc(OC)c(OC)cc1-2 [Compound No. 30, 5,6-dihydro-2,3-dimethoxybenzo[a]-13-ethyl-9-[4-(i-propyl)benzyloxy]-10-methoxybenzo[g]quinolizinium chloride] |

Second part, the molecule before the results:

| Compound | pIC50 |
| --- | --- |
| CCc1c2[n+](cc3c(OCc4ccc(C)c(C)c4)c(OC)ccc13)CCc1cc(OC)c(OC)cc1-2 [compound 27, 5,6-dihydro-2,3-dimethoxybenzo[a]-9-(3,4-dimethyl)benzyloxy-13-ethyl-10-methoxybenzo[g]quinolizinium chloride] | < 4.00 |
| CCc1c2[n+](cc3c(OCc4c(F)c(F)c(F)c(F)c4F)c(OC)ccc13)CCc1cc(O)c(O)cc1-2 [Compound No. 59, 5,6-dihydro-2,3-dihydroxybenzo[a]-13-ethyl-10-methoxy-9-(2,3,4,5,6-pentafluoro)benzyloxybenzo[g]quinolizinium chloride] | 4.00 to 5.00 |
| CCc1c2[n+](cc3c(OCc4c(F)c(F)c(C(F)(F)F)c(F)c4F)c(OC)ccc13)CCc1cc(OC)c(OC)cc1-2 [Compound No. 13, 5,6-dihydro-2,3-dimethoxybenzo[a]-13-ethyl-10-methoxy-9-(2,3,5,6-tetrafluoro-4-trifluoromethyl)benzyloxy-benzo[g]quinolizinium chloride] | > 6.00 |
| CCc1c2[n+](cc3c(OCc4cc(OC)cc(OC)c4)c(OC)ccc13)CCc1cc(OC)c(OC)cc1-2 [Compound No. 35, 5,6-dihydro-2,3-dimethoxybenzo[a]-9-(3,5-dimethoxy)benzyloxy-13-ethyl-10-methoxybenzo[g]quinolizinium chloride] | < 4.00 |
| CCc1c2[n+](cc3c(OCc4cc(OC)c(OC)cc4[N+](=O)[O-])c(OC)ccc13)CCc1cc(OC)c(OC)cc1-2 [Compound No. 5, 5,6-dihydro-2,3-dimethoxybenzo[a]-9-(4,5-dimethoxy-2-nitro)benzyloxy-13-ethyl-10-methoxybenzo[g]-quinolizinium chloride] | > 6.00 |
| CCc1c2[n+](cc3c(OCc4ccc(OC)cc4)c(OC)ccc13)CCc1cc(OC)c(OC)cc1-2 [Compound No. 22, 5,6-dihydro-2,3-dimethoxybenzo[a]-13-ethyl-10-methoxy-9-(4-methoxy)benzyloxybenzo[g]quinolizinium chloride] | < 4.00 |
| CCc1c2[n+](cc3c(OCc4ccc(Cl)nc4)c(OC)ccc13)CCc1cc(OC)c(OC)cc1-2 [Compound No. 17, 5,6-dihydro-2,3-dimethoxybenzo[a]-9-(6-chloropyridine-3-yl)methoxy-13-ethyl-10-methoxybenzo[g]quinoli-zinium chloride] | > 6.00 |
| CCOc1cc2c(cc1OCC)-c1c(CC)c3ccc(OC)c(OCc4c(F)c(F)c(C(F)(F)F)c(F)c4F)c3c[n+]1CC2 [Compound No. 57, 5,6-dihydro-2,3-diethoxybenzo[a]-9-(2,3,5,6-tetrafluoro-4-trifluoromethyl)benzyloxy-13-ethyl-10-methoxy-benzo[g]-quinolizinium chloride] | > 6.00 |
| CCc1c2[n+](cc3c(OCc4cccc([N+](=O)[O-])c4C)c(OC)ccc13)CCc1cc(OC)c(OC)cc1-2 [Compound No. 24, 5,6-dihydro-2,3-dimethoxybenzo[a]-13-ethyl-10-methoxy-9-(2-methyl-3-nitro)benzyloxybenzo[g]quinolizinium chloride] | < 4.00 |
| CCc1c2[n+](cc3c(OCc4ccc(OC(F)(F)F)cc4)c(OC)ccc13)CCc1cc(OC)c(OC)cc1-2 [Compound No. 42, 5,6-dihydro-2,3-dimethoxybenzo[a]-13-ethyl-10-methoxy-9-(4-trifluoromethoxy)benzyloxybenzo[g]quinolizinium chloride] | 4.00 to 5.00 |
| CCc1c2[n+](cc3c(OCc4ccc(F)cc4Cl)c(OC)ccc13)CCc1cc(OC)c(OC)cc1-2 [Compound No. 10, 5,6-dihydro-2,3-dimethoxybenzo[a]-9-(2-chloro-4-fluro)benzyloxy-13-ethyl-10-methoxybenzo[g]quinolizinium chloride] | 4.00 to 5.00 |
| CCc1c2[n+](cc3c(OCc4ccc(Cl)nc4)c(OC)ccc13)CCc1cc(OC)c(OC)cc1-2 [Compound No. 71, 5,6-dihydro-2,3-dimethoxybenzo[a]-9-(6-chloropyridine-3-yl)methoxy-13-ethyl-10-methoxybenzo-[g]quinolizinium nitrate] | 4.00 to 5.00 |
| CCCOc1cc2c(cc1OCCC)-c1c(CC)c3ccc(OCCC)c(OCc4ccc(C(C)(C)C)cc4)c3c[n+]1CC2 [Compound No. 66, 5,6-dihydro-2,3-dipropoxybenzo[a]-9-[4-(tert-butyl)benzyloxy]-13-ethyl-10-propoxybenzo[g]quinolizinium chloride] | 4.00 to 5.00 |
